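Exposure lasted 48 hours, with cells grown in 96-well plates and compounds tested at five concentrations. GI50 marks 50% less growth.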 The source made the active and inactive calls. Rule as the data show it: active = GI50 up to about 1.1 µM and inactive = higher.
What was measured:
Assay in all cases: NCI-60 cell line screen, 48 h
[1] = system: NCI-H522
[2] = system: ACHN
[3] = system: NCI-H23
[4] = system: PC-3
[5] = system: MOLT-4
[6] = system: OVCAR-3
[7] = system: TK-10
[8] = system: KM12
[9] = system: A498
[10] = system: UO-31
[11] = system: SF-268
[12] = system: HCC 2998
[13] = system: HOP-62
[14] = system: NCI-H226
[15] = system: U-251
[16] = system: NCI/ADR-RES
[17] = system: MDA-MB-435
[18] = system: CCRF-CEM
[19] = system: Hs-578T
[20] = system: RPMI-8226

Measured: GI50

Sc1nnc(COc2ccc(Cl)cc2)n1-c1ccccc1
inactive: [1] 5.4 µM | [2] > 100 µM | [3] > 100 µM | [4] > 100 µM | [5] 88.3 µM | [6] > 100 µM | [7] > 100 µM | [8] > 100 µM | [9] > 100 µM | [10] 61.2 µM | [11] > 100 µM | [12] > 100 µM | [13] > 100 µM | [14] > 100 µM | [15] > 100 µM | [16] > 100 µM | [17] > 100 µM | [18] 74.1 µM

COc1ccccc1N=C(S)Nc1ccccn1
inactive: [1] 43.4 µM | [4] > 100 µM | [5] > 100 µM | [6] > 100 µM | [7] 64.1 µM | [8] > 100 µM | [9] > 100 µM | [19] 84.7 µM | [10] > 100 µM | [11] 45.6 µM | [13] 63.4 µM | [14] > 100 µM | [20] > 100 µM | [15] 58.5 µM | [16] > 100 µM | [17] > 100 µM | [18] > 100 µM

Oc1ccc2c(c1)-c1c(c3ccccc3n1CCN1CCOCC1)CC2
inactive: [2] 23.1 µM | [3] 27.9 µM | [4] 32.2 µM | [5] > 100 µM | [6] 33.5 µM | [7] 28.6 µM | [8] 20 µM | [9] > 100 µM | [19] 63.4 µM | [10] 33.9 µM | [11] 59.4 µM | [13] 47 µM | [14] 24.6 µM | [20] > 100 µM | [15] 42.3 µM | [16] 32.7 µM | [17] 30.9 µM | [18] > 100 µM

O=c1[nH]c(N/N=C\C(=N/Nc2nc3ccccc3c(=O)[nH]2)C(O)C(O)C(O)CO)nc2ccccc12 (stereo not drawn)
inactive: [2] > 100 µM | [3] > 100 µM | [4] > 100 µM | [5] > 100 µM | [6] > 100 µM | [7] > 100 µM | [8] > 100 µM | [9] > 100 µM | [19] > 100 µM | [10] > 100 µM | [11] > 100 µM | [13] > 100 µM | [14] > 100 µM | [20] > 100 µM | [15] > 100 µM | [16] > 100 µM | [17] > 100 µM | [18] > 100 µM

COc1ccc(C2SCC(=O)N2c2ccc(-c3ccc(-n4c(-c5ccccc5)nc5ccccc5c4=O)cc3)cc2)cc1OC (stereo not drawn)
inactive: [3] > 100 µM | [4] 42 µM | [5] 22.4 µM | [6] 26.5 µM | [7] 25.2 µM | [8] 7.85 µM | [9] > 100 µM | [19] 69.5 µM | [10] 44.2 µM | [11] 43.5 µM | [13] 18 µM | [14] 52.7 µM | [20] 31.7 µM | [15] 43.8 µM | [16] 61.2 µM | [17] 33.3 µM | [18] 20 µM

O=C(CSCC(=O)N/N=C\c1ccc(-c2ccccc2)cc1)N/N=C\c1ccc(-c2ccccc2)cc1
inactive: [1] 13.5 µM | [2] 23.9 µM | [3] 17.8 µM | [4] 30.4 µM | [5] 25.3 µM | [6] 16.1 µM | [7] 26 µM | [8] 17.9 µM | [19] 18.3 µM | [10] 28.5 µM | [11] 15.8 µM | [13] 23 µM | [14] 28.8 µM | [15] 17.7 µM | [16] 56.4 µM | [17] 18.8 µM

CC(C)NC(=O)OCc1c(COC(=O)NC(C)C)c(-c2cc[n+](COC(=O)CC(C)(C)C)cc2)n2c1CCC2
inactive: [1] > 100 µM | [3] > 100 µM | [4] > 100 µM | [5] > 100 µM | [6] > 100 µM | [9] > 100 µM | [19] > 100 µM | [10] > 100 µM | [12] > 100 µM | [13] > 100 µM | [14] > 100 µM | [20] > 100 µM | [15] > 100 µM | [16] > 100 µM | [18] > 100 µM

Cc1cn([C@H]2C[C@@H]3[C@@H](COC(CCl)N3O)O2)c(=O)[nH]c1=O (stereo partly drawn)
inactive: [1] > 100 µM | [4] > 100 µM | [5] > 100 µM | [6] > 100 µM | [7] > 100 µM | [8] > 100 µM | [9] > 100 µM | [19] > 100 µM | [10] > 100 µM | [11] > 100 µM | [13] > 100 µM | [14] > 100 µM | [20] > 100 µM | [15] > 100 µM | [16] > 100 µM | [17] > 100 µM | [18] > 100 µM

CC1=C/C(=N\NS(=O)(=O)c2ccc([N+](=O)[O-])cc2)CC(C)(C)C1
inactive: [1] 86.5 µM | [2] 54.6 µM | [3] 92.9 µM | [4] > 100 µM | [5] > 100 µM | [6] > 100 µM | [7] > 100 µM | [8] 76.2 µM | [9] > 100 µM | [10] 80.7 µM | [11] 83.6 µM | [12] > 100 µM | [13] > 100 µM | [20] > 100 µM | [15] 97.1 µM | [16] 93.5 µM | [17] > 100 µM | [18] > 100 µM

CC1C2(C)OC(=N)C(C#N)(C(c3cccc([N+](=O)[O-])c3)O2)C1(C#N)C#N (stereo not drawn)
inactive: [2] 34 µM | [3] 33.6 µM | [4] 30.9 µM | [5] 36.3 µM | [6] > 10 µM | [7] 42.1 µM | [8] 44.9 µM | [9] > 100 µM | [19] 27.1 µM | [10] 35.6 µM | [11] 33 µM | [14] > 100 µM | [15] 21.9 µM | [16] 64.9 µM | [18] 15.6 µM

O=C1Nc2ccc(Br)cc2/C1=C/C(=O)c1ccccc1
inactive: [1] 2.22 µM | [2] 1.87 µM | [3] 10.2 µM | [4] 9.38 µM | [5] 2.64 µM | [6] 6.82 µM | [7] 1.82 µM | [8] 7.83 µM | [9] 18.6 µM | [19] 17.7 µM | [10] 2.49 µM | [11] 19.5 µM | [12] 15.1 µM | [13] 22.7 µM | [14] 13.9 µM | [20] 2.46 µM | [15] 17.9 µM | [17] 16.2 µM | [18] 1.9 µM

From ChEMBL document CHEMBL1201862, “PubChem BioAssay data set” (2004)
